# Reference: US8304428B2, “Compounds and methods for inhibiting the interaction of BCL proteins with binding partners” (Infinity Discovery, Inc., priority 2005, dated 2012)
# Target: Bcl-2 (Homo sapiens, UniProt P10415)
# Assay: Bcl-2 binding affinity analysis (fluorescence polarization binding assay)
# Source text: Bcl-2 and Bcl-xL binding can be determined using a variety of known methods. One such assay is a sensitive and quantitative in vitro binding assay using fluorescence polarization (FP) described by Wang, J.-L.; Zhang, Z-J.; Choksi, S.; Sjam. S.; Lu, Z.; Croce, C. M.; Alnemri, E. S.; Komgold, R.; Huang, Z. Cell permeable Bcl-2 binding peptides: a chemical approach to apoptosis induction in tumor cells. Cancer Res. 2000, 60, 1498-1502).
# Bcl-2 binding affinity analysis data is presented below for various compounds of the invention.
# Chain of Bcl-2 (P10415 whole entry): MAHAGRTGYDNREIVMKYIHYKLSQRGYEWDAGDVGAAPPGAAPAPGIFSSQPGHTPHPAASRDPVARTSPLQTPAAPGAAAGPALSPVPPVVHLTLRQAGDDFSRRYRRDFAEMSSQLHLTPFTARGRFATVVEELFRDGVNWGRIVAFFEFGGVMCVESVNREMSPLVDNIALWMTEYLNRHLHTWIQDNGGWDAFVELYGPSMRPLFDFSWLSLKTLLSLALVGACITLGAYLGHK
row,SMILES,Ki [nM]
1,COc1c(CN2CCC[C@@H]2C(=O)N[C@H]2C[C@H]3C[C@@H]([C@@H]2C)C3(C)C)cccc1-c1cc(C(=O)N[C@@H](Cc2ccccc2)CN(C)C)cc([N+](=O)[O-])c1 [Compound 18],300 to 50000
2,C[C@H](O)[C@H]1[C@@H](C(=O)NC2C[C@H]3C[C@@H]([C@@H]2C)C3(C)C)N(Cc2cccc(-c3ccc(C(=O)N(C)C)cc3)c2)C[C@@H]1O (stereo partly drawn) [Compound 24],> 50000
3,COc1c(CN2CC[C@H](O)[C@H]2C(=O)N[C@H]2C[C@H]3C[C@@H]([C@@H]2C)C3(C)C)cccc1-c1cc(C(=O)N[C@@H](Cc2ccccc2)CN(C)C)cc(N(C)C)c1 [Compound 26],< 100
4,COc1c(CN2CSC[C@H]2C(=O)N[C@H]2C[C@H]3C[C@@H]([C@@H]2C)C3(C)C)cccc1-c1cc(C(=O)N[C@@H](Cc2ccccc2)CN(C)C)cc(N(C)C)c1 [Compound 33],< 100
5,COc1c(CN2C[C@@H](N)C[C@H]2C(=O)N[C@H]2C[C@H]3C[C@@H]([C@@H]2C)C3(C)C)cccc1-c1cc(C(=O)N[C@@H](Cc2ccccc2)CN(C)C)cc(N(C)C)c1 [Compound 36],< 100
6,COc1c(CN2CCOC[C@H]2C(=O)N[C@H]2C[C@H]3C[C@@H]([C@@H]2C)C3(C)C)cccc1-c1cc(C(=O)N[C@@H](Cc2ccccc2)CN(C)C)cc(N(C)C)c1 [Compound 38],300 to 50000

# Further lines, results first:
row,Ki [nM],SMILES
1,< 100,COc1c(CN2C[C@H](O)[C@@H]([C@H](C)O)[C@H]2C(=O)NC2C[C@H]3C[C@@H]([C@@H]2C)C3(C)C)cccc1-c1cc(C(=O)NCCc2ccccc2)cc(N(C)C)c1 (stereo partly drawn) [Compound 1]
2,> 50000,COc1c(CN2CCC[C@H]2C(=O)N[C@H]2C[C@H]3C[C@@H]([C@@H]2C)C3(C)C)cccc1-c1cc(C(=O)N[C@@H](Cc2ccccc2)CN(C)C)cc([N+](=O)[O-])c1 [Compound 13]
3,< 100,CCN1CCC[C@@H]1CNC(=O)c1cc(-c2cccc(CN3C[C@H](O)[C@@H]([C@H](C)O)[C@H]3C(=O)NC3C[C@H]4C[C@@H]([C@@H]3C)C4(C)C)c2OC)cc(N(C)C)c1 (stereo partly drawn) [Compound 23]
4,< 100,COc1c(CN2CSC(C)(C)[C@H]2C(=O)N[C@H]2C[C@H]3C[C@@H]([C@@H]2C)C3(C)C)cccc1-c1cc(C(=O)N[C@@H](Cc2ccccc2)CN(C)C)cc(N(C)C)c1 [Compound 34]
5,< 100,COc1c(CN2C[C@H](N)C[C@H]2C(=O)N[C@H]2C[C@H]3C[C@@H]([C@@H]2C)C3(C)C)cccc1-c1cc(C(=O)N[C@@H](Cc2ccccc2)CN(C)C)cc(N(C)C)c1 [Compound 35]
6,> 50000,COc1c(CN2CCCC[C@H]2C(=O)N[C@H]2C[C@H]3C[C@@H]([C@@H]2C)C3(C)C)cccc1-c1cc(C(=O)N[C@@H](Cc2ccccc2)CN(C)C)cc(N(C)C)c1 [Compound 37]
